Test results taken from US10143201B2, “Fungicidal compositions” (Syngenta Crop Protection LLC, priority 2007, dated 2018).
Several values for one entry are separate records, joined by “and”; a condition that tells them apart may be missing. Identical values can stand only once.

Assays:
Botrytis cinerea = assay: Fungicidal action against Botrytis cinerea (gray mould), microtiter growth inhibition; format: cell-based; conditions: alone
Procedure: Example B2: Fungicidal Action Against Botrytis cinerea (Gray Mould)
(§1) Conidia of the fungus from cryogenic storage are directly mixed into nutrient broth (PDB potato dextrose broth). After placing a (DMSO) solution of the test compounds into a microtiter plate (96-well format) the nutrient broth containing the fungal spores is added. The test plates are incubated at 24° C. and the inhibition of growth is evaluated after 4 days. The expected fungicidal action is calculated according to the Colby method.

[1] = tested on: Pseudocercosporella herpotrichoides (syn. Tapesia yallundae); assay: Fungicidal action against Pseudocercosporella herpotrichoides (eye spot of cereals), microtiter growth inhibition; format: cell-based; conditions: alone
Procedure: Example B5: Funicidal Action Against Pseudocercosporella herpotrichoides (Syn. Tapesia yallundae), Eye Spot of Cereals
as §1

Alternaria solani = assay: Fungicidal action against Alternaria solani (early blight tomato/potato), microtiter growth inhibition; format: cell-based; conditions: alone
Procedure: Example B4: Fungicidal Action Against Alternaria solani (Early Blight Tomato/Potato)
Conidia of the fungus from cryogenic storage are directly mixed into nutrient broth (PDB potato dextrose broth). After placing a (DMSO) solution of the test compounds into a microtiter plate (96-well format) the nutrient broth containing the fungal spores is added. The test plates are incubated at 24° C. and the inhibition of growth is evaluated after 3 days. The expected fungicidal action is calculated according to the Colby method.

Gaeumannomyces graminis = assay: Fungicidal action against Gaeumannomyces graminis (take-all of cereals), microtiter growth inhibition; format: cell-based; conditions: compound alone
Procedure: Example B7: Fungicidal Action Against Gaeumannomyces graminis (Take-all of Cereals)
Mycelial fragments of the fungus from cryogenic storage are directly mixed into nutrient broth (PDB potato dextrose broth). After placing a (DMSO) solution of the test compounds into a microtiter plate (96-well format) the nutrient broth containing the fungal spores is added. The test plates are incubated at 24 C and the inhibition of growth is evaluated after 4 days.

Septoria tritici = assay: Fungicidal action against Septoria tritici (leaf blotch), microtiter growth inhibition; format: cell-based; conditions: alone
Procedure: Example B3: Fungicidal Action Against Septoria tritici (Leaf Blotch)
as §1

[2] = tested on: Cercospora arachidicola (syn. Mycosphaerella arachidis); assay: Fungicidal action against Cercospora arachidicola (brown leaf spot of groundnut), microtiter growth inhibition; format: cell-based; conditions: compound alone
Procedure: Example B8: Fungicidal Action Against Cercospora arachidicola (Syn. Mycosphaerella arachidis), Brown Leaf Spot of Groundnut (Peanut)
Conidia of the fungus from cryogenic storage are directly mixed into nutrient broth (PDB potato dextrose broth). After placing a (DMSO) solution of the test compounds into a microtiter plate (96-well format) the nutrient broth containing the fungal spores is added. The test plates are incubated at 24 C and the inhibition of growth is evaluated after 7 days.

[3] = tested on: Colletotrichum lagenarium (syn. Glomerella lagenarium); assay: Fungicidal action against Colletotrichum lagenarium (anthracnose of cucurbits), microtiter growth inhibition; format: cell-based; conditions: compound alone
Procedure: Example B10: Fungicidal Action Against Colletotrichum lagenarium (Syn. Glomerella lagenarium), Anthracnose of Cucurbits Conidia of the fungus from cryogenic storage are directly mixed into nutrient broth (PDB potato dextrose broth). After placing a (DMSO) solution of the test compounds into a microtiter plate (96-well format) the nutrient broth containing the fungal spores is added. The test plates are incubated at 24 C and the inhibition of growth is evaluated after 3 days.

Phakopsora pachyrhizi = assay: Action against Asian soybean rust, leaf disc test; format: in vivo; conditions: 14 days after inoculation
Procedure: Example B-1: Action Against Asian Soybean Rust (Phakopsora pachyrhizi)—Leaf Disc Test
Whole soybean plants (variety brand Williams82) are treated with the recited active ingredients 4 weeks after planting. 1 day after spraying leaf disks are cut from the first trifoliate leaf. Five repetitions at each rate are conducted. The leaf disks are inoculated with Phakopsora pachyrhizi (Asian soybean rust) one day after treatment. Evaluation of the leaf disks is conducted fourteen days after inoculation and the mean percent infestation of the five repetitions is calculated. Standard EC100 formulations are used. The rates of the active ingredients used are given in Table B1 as g active ingredient (a.i.)/ha.

[4] = tested on: Monopraphella nivalis (syn. Microdochium nivale, Fusarium nivale); assay: Fungicidal action against Monopraphella nivalis (snow mould, foot rot of cereals), microtiter growth inhibition; format: cell-based; conditions: compound alone
Procedure: Example B9: Fungicidal Action Against Monopraphella nivalis (Syn. Microdochium nivale, Fusarium nivale), Snow Mould, Foot Rot of Cereals
Conidia of the fungus from cryogenic storage are directly mixed into nutrient broth (PDB potato dextrose broth). After placing a (DMSO) solution of the test compounds into a microtiter plate (96-well format) the nutrient broth containing the fungal spores is added. The test plates are incubated at 24 C and the inhibition of growth is evaluated after 4 days.

Pyrenophora teres = assay: Fungicidal action against Pyrenophora teres (net blotch), microtiter growth inhibition; format: cell-based
Procedure: Example B6: Fungicidal Action Against Pyrenophora teres (Net Blotch)
as §1

Compound: Cn1cc(C(=O)Nc2cccc3c2C2CCC3C2=C(Cl)Cl)c(C(F)(F)F)n1 (stereo not shown)
- melting point: 183 to 188 °C and 179 to 181 °C

Compound: Cn1cc(C(=O)Nc2cccc3c2C2CCC3C2=C(F)F)c(C(F)F)n1 (stereo not shown) [Compound A-1.2, 3-difluoromethyl-1-methyl-1H-pyrazole-4-carboxylic acid (9-difluoromethylidene-benzonorbornene-5-yl)amide]
- % activity (Botrytis cinerea; 0.0313 ppm): 0%
- % activity (Botrytis cinerea; 0.1250 ppm): 20%
- % activity (Botrytis cinerea; 0.2500 ppm): 20%
- % activity (Botrytis cinerea; 0.5000 ppm): 20%
- % activity (Botrytis cinerea; 1.0000 ppm): 50%
- % activity (Botrytis cinerea; 2.0000 ppm): 70%
- % activity ([1]; 0.0039 ppm): 0%
- % activity ([1]; 0.0078 ppm): 0%
- % activity ([1]; 0.0156 ppm): 0%
- % activity ([1]; 0.0313 ppm): 0%
- % activity ([1]; 0.0625 ppm): 0%
- % activity ([1]; 0.5000 ppm): 70%
- % activity (Alternaria solani; 0.0313 ppm): 0%
- % activity (Alternaria solani; 0.1250 ppm): 20%
- % activity (Alternaria solani; 0.2500 ppm): 50%
- % activity (Alternaria solani; 0.5000 ppm): 50%
- % activity (Gaeumannomyces graminis; 0.0156 ppm): 0%
- % activity (Gaeumannomyces graminis; 0.0313 ppm): 0%
- % activity (Gaeumannomyces graminis; 0.0625 ppm): 0%
- % activity (Gaeumannomyces graminis; 0.1250 ppm): 0%
- % activity (Gaeumannomyces graminis; 0.5000 ppm): 70% and 90%
- % activity (Septoria tritici; 0.0078 ppm): 0%
- % activity (Septoria tritici; 0.0156 ppm): 0%
- % activity (Septoria tritici; 0.1250 ppm): 0%
- % activity (Septoria tritici; 0.2500 ppm): 20%
- % activity (Septoria tritici; 0.5000 ppm): 50%
- % activity (Septoria tritici; 1.0000 ppm): 70%
- % activity ([2]; 0.0156 ppm): 0%
- % activity ([2]; 0.0313 ppm): 0%
- % activity ([2]; 0.0625 ppm): 0%
- % activity ([2]; 0.1250 ppm): 20%
- % activity ([2]; 0.2500 ppm): 70% and 50%
- % activity ([3]; 0.0313 ppm): 0%
- % activity ([3]; 0.0625 ppm): 0%
- % activity ([3]; 0.1250 ppm): 0%
- % activity ([3]; 0.5000 ppm): 20%
- % activity ([3]; 1.0000 ppm): 50%
- % Control of Phakopsora pachyrhizi (Phakopsora pachyrhizi; 31.25 g a.i./ha): 39%
- % Control of Phakopsora pachyrhizi (Phakopsora pachyrhizi; 62.5 g a.i./ha): 54%
- % Control of Phakopsora pachyrhizi (Phakopsora pachyrhizi; 125 g a.i./ha): 44%
- % Control of Phakopsora pachyrhizi (Phakopsora pachyrhizi; 250 g a.i./ha): 94%
- % activity ([4]; 1.0000 ppm): 50%
- % activity ([4]; 2.0000 ppm): 70%
- % activity (Pyrenophora teres; 0.0078 ppm, alone): 0%
- % activity (Pyrenophora teres; 0.0156 ppm, alone): 0%
- % activity (Pyrenophora teres; 0.0313 ppm, alone): 0%
- % activity (Pyrenophora teres; 0.1250 ppm, alone): 20%
- % activity (Pyrenophora teres; 0.2500 ppm, alone): 20%
- % activity (Pyrenophora teres; compound alone, 0.0313 ppm): 0%
- % activity (Pyrenophora teres; compound alone, 0.1250 ppm): 20%
- % activity (Pyrenophora teres; compound alone, 0.2500 ppm): 20%
- % activity (Pyrenophora teres; compound alone, 0.5000 ppm): 50%
- % activity (Pyrenophora teres; compound alone, 1.0000 ppm): 50%
- % activity (Pyrenophora teres; compound alone, 2.0000 ppm): 70%

Compound: CC(Cc1ccc(C(C)(C)C)cc1)CN1C[C@@H](C)O[C@@H](C)C1 (stereo partly shown) [Fenpropimorph]
- inhibition at 0.25 ppm (Gaeumannomyces graminis; Gaeumannomyces graminis, 0.2500 ppm): 0%
- inhibition at 0.5 ppm (Gaeumannomyces graminis; Gaeumannomyces graminis, 0.5000 ppm): 0%
- inhibition at 1 ppm (Gaeumannomyces graminis; Gaeumannomyces graminis, 1.0000 ppm): 0%
- inhibition at 2 ppm (Gaeumannomyces graminis; Gaeumannomyces graminis, 2.0000 ppm): 20%
- inhibition at 0.0625 ppm ([2]; Mycosphaerella arachidis, 0.0625 ppm): 0%
- inhibition at 0.125 ppm ([2]; Mycosphaerella arachidis, 0.1250 ppm): 0%
- inhibition at 0.25 ppm ([2]; Mycosphaerella arachidis, 0.2500 ppm): 20%
- inhibition at 0.5 ppm ([2]; Mycosphaerella arachidis, 0.5000 ppm): 50%
- inhibition at 0.25 ppm ([3]; Colletotrichum orbiculare, 0.2500 ppm): 0%
- inhibition at 0.5 ppm ([3]; Colletotrichum orbiculare, 0.5000 ppm): 0%
- inhibition at 1 ppm ([3]; Colletotrichum orbiculare, 1.0000 ppm): 20%
- inhibition at 2 ppm ([3]; Colletotrichum orbiculare, 2.0000 ppm): 20%
- inhibition at 0.0625 ppm ([4]; Microdochium nivale, 0.0625 ppm): 0%
- inhibition at 0.125 ppm ([4]; Microdochium nivale, 0.1250 ppm): 0%
- inhibition at 0.25 ppm ([4]; Microdochium nivale, 0.2500 ppm): 0%
- inhibition at 0.5 ppm ([4]; Microdochium nivale, 0.5000 ppm): 0%
- inhibition at 1 ppm ([4]; Microdochium nivale, 1.0000 ppm): 0%
- inhibition at 2 ppm ([4]; Microdochium nivale, 2.0000 ppm): 0%
